Source: ChEMBL document CHEMBL5241079, “Inhibitors of BCL2A1/Bfl-1 protein: Potential stock in cancer therapy” (Eur J Med Chem, 2021)

Key:
[1] = biological target: T1, Apoptosis regulator Bcl-2 (Homo sapiens, UniProt P10415); test: Inhibition of Bcl-2 (unknown origin) by fluorescence polarization assay
[2] = biological target: T2, Bcl-2-related protein A1 (Homo sapiens, UniProt Q16548); test: Inhibition of Bfl-1 (unknown origin) by fluorescence polarization assay
T2 sequence (Q16548 whole entry): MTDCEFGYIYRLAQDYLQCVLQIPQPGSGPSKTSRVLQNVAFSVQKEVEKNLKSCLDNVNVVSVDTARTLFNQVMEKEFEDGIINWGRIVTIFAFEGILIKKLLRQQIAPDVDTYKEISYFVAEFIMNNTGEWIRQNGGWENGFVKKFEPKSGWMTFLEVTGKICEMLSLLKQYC

[3] = biological target: Induced myeloid leukemia cell differentiation protein Mcl-1 (Homo sapiens) (UniProt Q07820); test: Displacement of fluorescein tagged BID BH3 peptide from GST-tagged recombinant Mcl-1 (unknown origin) by fluorescence polarization-based competitive binding assay
[4] = biological target: T1, Apoptosis regulator Bcl-2; test: Displacement of fluorescein tagged BID BH3 peptide from GST-tagged recombinant Bcl-2 (unknown origin) by fluorescence polarization-based competitive binding assay
[5] = biological target: T3, Bcl-2-like protein 11/Bcl-2-related protein A1 (Homo sapiens, UniProt O43521+Q16548); test: Inhibition of Bfl-1/Bim (unknown origin) assessed as inhibition constant by fluorescence polarization assay; format: protein-complex assay
[6] = biological target: T3, Bcl-2-like protein 11/Bcl-2-related protein A1; test: Inhibition of Bfl-1/Bim (unknown origin) by fluorescence polarization assay; format: protein-complex assay
[7] = biological target: T3, Bcl-2-like protein 11/Bcl-2-related protein A1; test: Inhibition of Bfl-1/Bim (unknown origin) incubated for 30 mins by TR-FRET assay; format: protein-complex assay
[8] = Lipophilicity, logP of compound; format: physicochemical; conditions: octanol/water
[9] = biological target: T2, Bcl-2-related protein A1; test: Displacement of fluorescent-labeled BID-BH3 peptide from His-tagged BFL-1 (unknown origin)

T3 sequence (O43521 whole entry, one chain of several): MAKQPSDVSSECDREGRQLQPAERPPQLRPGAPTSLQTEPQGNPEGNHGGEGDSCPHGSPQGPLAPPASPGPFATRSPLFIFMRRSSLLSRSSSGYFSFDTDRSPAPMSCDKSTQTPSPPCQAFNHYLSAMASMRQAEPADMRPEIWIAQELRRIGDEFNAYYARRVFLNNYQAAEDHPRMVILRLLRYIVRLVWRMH
T1 sequence (P10415 whole entry): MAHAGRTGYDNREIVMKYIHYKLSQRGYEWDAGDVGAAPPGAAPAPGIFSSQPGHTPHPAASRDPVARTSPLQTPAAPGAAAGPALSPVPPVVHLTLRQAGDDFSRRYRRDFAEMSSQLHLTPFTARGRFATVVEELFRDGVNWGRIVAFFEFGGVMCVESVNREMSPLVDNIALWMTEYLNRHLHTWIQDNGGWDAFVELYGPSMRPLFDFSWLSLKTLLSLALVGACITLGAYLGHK
Sequence of Induced myeloid leukemia cell differentiation protein Mcl-1 (Homo sapiens) (Q07820 whole entry): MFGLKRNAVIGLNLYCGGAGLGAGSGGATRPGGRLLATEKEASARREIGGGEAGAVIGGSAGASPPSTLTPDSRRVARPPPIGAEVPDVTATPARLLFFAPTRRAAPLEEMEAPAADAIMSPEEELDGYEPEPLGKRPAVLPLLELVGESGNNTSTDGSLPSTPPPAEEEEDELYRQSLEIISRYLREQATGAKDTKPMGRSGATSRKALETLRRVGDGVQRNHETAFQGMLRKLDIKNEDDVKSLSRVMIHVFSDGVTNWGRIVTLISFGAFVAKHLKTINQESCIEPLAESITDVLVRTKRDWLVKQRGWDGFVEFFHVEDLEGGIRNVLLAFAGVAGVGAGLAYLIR

For `CC1=C(C2=C(C)C(=O)c3c(cc(O)c(O)c3Cc3ccccc3)C2=O)C(=O)c2cc(O)c(O)c(Cc3ccccc3)c2C1=O`, the IC50 [1] was 1.3 µM.
Work on `O=C1NC(=S)N(c2cccc(Br)c2)C(=O)/C1=C/C=C/c1ccccc1` yielded an IC50 [2] of 1.6 µM.
Work on `CC(C)=CCC[C@]1(C)C=Cc2c(O)c3c(c(CC=C(C)C)c2O1)O[C@]12C(=C[C@@H]4C[C@H]1C(C)(C)O[C@@]2(C/C=C(/C)C(=O)O)C4=O)C3=O` [GAMBOGIC ACID] yielded an IC5 [3] of 0.79 µM, an IC5 [4] of 1.21 µM and an IC50 [1] of 0.122 µM.
Work on `COc1ccc(C(c2c(-c3ccccc3)n(O)c3ccccc23)N2CCN(C)CC2)cc1` (stereo not given) yielded a Ki [5] of 0.4 µM, an IC50 [6] of 0.8 µM and an IC50 [7] of 1.4 µM. It also gave a logP [8] of 4.
For `CSc1ccc(C(Nc2ccccn2)c2c(C)[nH]c3ccccc23)cc1` (stereo not given), the Ki [5] was 2.9 µM, the IC50 [6] was 6.3 µM and the IC50 [7] was 2.5 µM. For the same molecule, the logP [8] was 4.
With `CC(=O)N[C@@H](Cc1c[nH]c2ccccc12)C(=O)NCCSSCCN(C)C` the EC50 [9] was 0.023 µM.
Molecule `CCOc1ccc(N2C(=O)/C(=C/C=C/c3ccccc3)C(=O)NC2=S)cc1` has an IC50 [2] of 1.3 µM.
